In PubChem BioAssay (NCI):
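These data come from cells grown in 96-well plates and exposed to compound for 48 hours at five concentrations. TGI is the concentration that stops growth completely.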

Legend:
Assay in all cases: growth of human tumour cells (NCI), 48 h
[1] = system: HCC-2998 colon
[2] = system: UACC-257 melanoma
[3] = system: HL-60(TB) leukemia
[4] = system: RXF 393 renal
[5] = system: HOP-62 NSCLC
[6] = system: U251 CNS
[7] = system: OVCAR-4 ovarian
[8] = system: MALME-3M melanoma
[9] = system: SK-MEL-2 melanoma
[10] = system: SK-MEL-5 melanoma
[11] = system: UO-31 renal
[12] = system: OVCAR-5 ovarian
[13] = system: NCI-H226 lung
[14] = system: HS 578T breast
[15] = system: SNB-19 CNS
[16] = system: A549 NSCLC
[17] = system: CAKI-1 renal
[18] = system: HT29 colon
[19] = system: NCI-H460 lung
[20] = system: KM12 colon
[21] = system: MOLT-4 leukemia
[22] = system: SF-539 CNS
[23] = system: HOP-92 NSCLC
[24] = system: COLO 205 colon
[25] = system: OVCAR-8 ovarian
[26] = system: K-562 leukemia
[27] = system: EKVX NSCLC
[28] = system: SK-OV-3 ovarian
[29] = system: A498 renal
[30] = system: MDA-MB-231 breast
[31] = system: SN12C renal
[32] = system: SK-MEL-28 melanoma
[33] = system: RPMI-8226 leukemia
[34] = system: HCT-116 colon
[35] = system: OVCAR-3 ovarian
[36] = system: DU-145 prostate
[37] = system: SNB-75 CNS
[38] = system: SF-268 CNS
[39] = system: TK-10 renal
[40] = system: M14 melanoma
[41] = system: SW-620 colon
[42] = system: ACHN renal
[43] = system: LOX IMVI melanoma
[44] = system: NCI-H23 lung
[45] = system: MCF7 breast
[46] = system: CCRF-CEM leukemia
[47] = system: MDA-MB-435
[48] = system: BT-549 breast
[49] = system: SF-295 CNS
[50] = system: NCI/ADR-RES ovarian
[51] = system: 786-0 renal
[52] = system: NCI-H522 lung
[53] = system: UACC-62 melanoma
[54] = system: MDA-N
[55] = system: PC-3 prostate
[56] = system: HCT-15 colon
[57] = system: T-47D breast
[58] = system: IGROV1 ovarian
[59] = system: SR leukemia

Measured: TGI

Oc1cccc2cc(Cl)cnc12
30.3 µM: [50]
98.9 µM: [27]
> 83.4 µM: [58]
6.27 µM: [3]
97.5 µM: [13]
38.3 µM: [26]
15.5 µM: [46]
99.1 µM: [10]
> 44.7 µM: [53]
81.7 µM: [2]
22 µM: [52]
> 31.1 µM: [35]
> 64.1 µM: [43]
> 68.5 µM: [57]
> 79.6 µM: [4]
> 69.2 µM: [18]
99 µM: [22]
27.4 µM: [21]
61.6 µM: [33]
> 83.5 µM: [14]
37.8 µM: [34]
> 90.6 µM: [7]
> 88.4 µM: [1]
> 77.5 µM: [29]
not listed: [59]
> 100 µM: all other assays above

O=C(/C=C/c1ccc2c(c1)OCO2)NCc1ccco1
80.9 µM: [57]
not listed: [3] | [4] | [33] | [38] | [52]
> 100 µM: all other assays above
